Laboratory results as given in patent US20260256771A1, “GALUNISERTIB FOR USE IN THE TREATMENT OF ANDROGENIC ALOPECIA” (SAÚDE VIÁVEL, S.A., priority 2022, published 2026).

Assays:
[1] = test system: human hair follicle organ cultures (HFOCs); experiment: Ex vivo human scalp hair follicle organ culture: catagen onset and hair shaft elongation; assay type: cell-based; details: 10 μM; in comparison to untreated controls; 10 days culture
Description: FIG. 2. Galunisertib delays catagen entry in HFOCs. a) Hair growth ex vivo (HFOCs) under different treatment conditions for 10 days. Representative HF photos for each condition over time are shown in the panels. DP detachment was used as readout for catagen onset. Scale bar, 1 mm. b) Catagen onset timing in HFOCs under different treatment conditions as indicated. c) Percentage of hair shaft elongation in comparison to day 0. In b) and c), values are mean±SD of HFOCs established from n=5 independent donors (n>20 HFs per condition). ns not significant, *p≤0.05, **p≤0.01 by Mann-Whitney (b,c).
In addition, only anagen hair follicles are used.
(§1) Hair growth percentages is normalized to day 0.

TGFβ2 protein = experiment: Immunohistochemistry of cryo-sectioned HFOCs: TGFβ2; assay type: cell-based, human
Description: as §1
(§2) FIG. 4. Galunisertib inhibits TGFβ2 paracrine signaling in the bulb epithelial compartment. a) Representative Immunohistochemistry (IHC) images of tissue sections of HFOCs untreated and treated with Galunisertib as indicated and stained for TGFβ2 and p-SMAD2. In the upper left frame is exemplified how the dermal papilla (DP) and adjacent bulb epithelial compartment (HB) regions were delineated for quantitative analyses shown in b-e. Nuclei were counterstained with DAPI. Scale bar, 100 μm. b-e) Adjusted intensity levels of TGFβ2 and p-SMAD2 per DP and HB areas as measured in tissue sections from untreated and Galunisertib-treated HFOCs. Values are mean±SD of HFOCs established from n=4 donors (n>9 HFs per condition). ns p≥0.05, *p≤0.05 by unpaired t-test.
(§3) For immunohistochemistry, 2-day HFOCs are used for immunohistochemistry analysis. Briefly, HFs were embedded on a drop of OCT and stored at −80° C. 8 μm cryosections are air-dried and fixed in 4% PFA (for TGFβ2, cleavage Caspase 3, p-SMAD2 and KI67 immunostainings) or cold acetone (for LEF1 and β-catenin immunostaining). Following 2×5 min rinse with PBS, microsections are permeabilized 2× for 10 min with PBS+0.3% Triton X 100 (PBS-T) and then blocked with PBS+10% fetal bovine serum (FBS) for 1 hour at room temperature. […]

p-SMAD2 = experiment: Immunohistochemistry of cryo-sectioned HFOCs: p-SMAD2; assay type: cell-based, human
Description: as §1, §2, §3

[2] = test system: Ki67 proliferation marker; experiment: Immunohistochemistry of cryo-sectioned HFOCs: Ki67; assay type: cell-based, human; details: HFOCs treated with Galunisertib for 48 h vs untreated
Description: as §1
(§4) FIG. 5. Galunisertib improves cell proliferation and the WNT signaling in the bulb epithelial compartment. a) Representative IHC images of tissue sections of HFOCs untreated and treated with Galunisertib and stained for KI67 and cleaved caspase 3. Nuclei were counterstained with DAPI. Scale bar, 100 μm. b,c) Adjusted intensity levels of KI67 and cleaved caspase 3 per DP and HB (bulb epithelium) areas, respectively, as measured in tissue sections from HFOCs with and without Galunisertib. All values are mean±SD of HFOCs established from n=8 donors (n>16 HFs per condition). ns p≥0.05, *p≤0.05 by unpaired t-test.
as §3, with “temperature. Antibodies are diluted in PBS-T+1% FBS and incubation done overnight at 4° C.” for “temperature.”

cleaved Caspase 3 = experiment: Immunohistochemistry of cryo-sectioned HFOCs: cleaved Caspase 3; assay type: cell-based, human; details: mainly detected in the DP; HFOCs treated with Galunisertib for 48 h vs untreated
Description: as §1, §4
as §3, with “temperature. Antibodies are diluted in PBS-T+1% FBS and incubation done overnight at 4° C.” for “temperature.”

[3] = test system: C57BL/6 depilated male mice; experiment: Hair growth in depilated mice under topical treatment (photographs, trichoscopy); assay type: in vivo, mouse; details: for hair growth in magnified photographs of depilated areas: day 9, vs vehicle control
Procedure: FIG. 7. Galunisertib induces hair growth in C57BL/6J mice. a) Mouse treatment scheme. 7-week-old C57BL/6J mice were depilated (day −2) and 2 days later (day 0) started being treated with vehicle (70% ethanol), galunisertib (10 μM and 100 μM) or 3% minoxidil for 21 non-continuous days. b) Photographs of C57BL/6J mice treated with vehicle (control), 10 μM and 100 μM galunisertib or 3% minoxidil at days 0, 5, 9 and 14. c) Magnified photographs of the depilation site of C57BL/6J mice treated with vehicle (Ctr), galunisertib (10 and 100 μM) or minoxidil at days 7 and 9. d) Trichoscopy images of depilated regions at days 8 and 10. N≥3 animals were used per timepoint per condition for image and skin collection; e) Mass spectrometry analysis of skin biopsies retrieved at day 14 from animals treated with 10 μM and 100 μM galunisertib. Values are mean±SD of n=3 animals per condition.
Mice are six-week-old male C57BL/6J mice purchased from the Charles River Laboratories. The animals are housed and allowed to adapt to the laboratory environment for one week before experiments start. Animals are maintained under a 12 h light/dark cycle and fed with regular rodent's chow and tap water ad libitum, at the i3S animal facility.
For depilation and treatments in order to synchronize hair growth cycle in mice, anagen is induced by depilation. Seven-week-old male C57BL/6J mice are anesthetized using 3% isoflurane and their back is shaved using a hair shaver. Hair is then further depilated using cold wax bands (Veet Minima). After the depilation, the excess of wax is removed with mineral oil, and a skin protector spray, Douxo Calm Sérum, is applied, followed by Cavilon, a barrier film spray. To allow for skin to fully recover, topical treatments started two days later. During the procedures mice are under volatile anesthesia (3% isoflurane) and are kept warmed. Mice are photographed with a camara or a trichoscope (Dino-Lite), before topical application of galunisertib (10 μM and 100 μM), minoxidil (3%) or vehicle (70% ethanol). Topical applications are performed using a syringe in order to cover the depilated area only. Hair growth is followed for 21 days, although telogen is apparent at day 18 post-treatment.

[4] = Mass spectrometry of skin biopsies; assay type: in vivo, mouse; details: skin retrieved at day 14, N=3, mean±SD
Procedure: For mass spectrometry of skin biopsies, dorsal skin of mice under 10 μM and 100 μM galunisertib topical treatment for 14 days is collected after anesthesia (Ketamine 150 mg/kg+Medetomidine 2 mg/kg) and perfusion with PBS. Skin samples are snap frozen and stored at −80° C. until being sent for mass spec analysis by Cyprotex. Skin samples from N=3 animals per condition are homogenized 1:4 in mouse plasma, then quantified against a mouse plasma calibration curve. Analytical runs meeting calibration standard and QC acceptance criteria.

[5] = bulb epithelial compartment surrounding the DP, Galunisertib 48 h vs untreated
[6] = dermal papilla, HFOCs with or without Galunisertib for 48 h

fluorescence intensity levels of cleaved Caspase 3 (cleaved Caspase 3): do not show significant changes
concentration of compound in skin biopsies ([4]; topical 10 μM galunisertib): 1.6 ± 0.7 µM
concentration of compound in skin biopsies ([4]; topical 100 μM galunisertib): 9.6 ± 0.6 µM
Structure (SMILES): Cc1cccc(-c2nn3c(c2-c2ccnc4ccc(C(N)=O)cc24)CCC3)n1 [Galunisertib]
catagen entry (mean time HFOCs take to enter catagen) [1]: capable of delaying catagen entry
hair shaft elongation [1]: impact in the hair shaft elongation
TGFβ2 fluorescence intensity levels at the bulb epithelial compartment (TGFβ2 protein; [5]): decreased levels
DP levels of TGFβ2 (fluorescence intensity) (TGFβ2 protein; [6]): isn't any significant change
p-SMAD2 fluorescence intensity levels at the bulb epithelial compartment (p-SMAD2; [5]): decreased levels
p-SMAD2 in DP (fluorescence intensity) (p-SMAD2; [6]): not significantly reduced
number of bulb epithelial cells staining positive for Ki67 [2]: increased number
Ki67 fluorescence intensity levels ([2]; bulb epithelium): higher
adverse side effects ([3]; mice under topical galunisertib (10 and 100 μM)): no apparent adverse side effects
hair growth in magnified photographs of depilated areas ([3]; topical 10 μM galunisertib): marked improvement of hair growth
hair growth in magnified photographs of depilated areas ([3]; topical 100 μM galunisertib, ranked after 10 μM galunisertib): marked improvement of hair growth
hair density by trichoscopy examination of depilated regions ([3]; topical galunisertib, in particular 10 μM, days 8 and 10): increased hair density
macroscopic assessment of hair growth: darkness of depilated area (hair density) ([3]; topical, galunisertib 10 and 100 μM, minoxidil 3%, vs. control mice, day 5 to day 14): consistently darker
